The results in this text go back to PubChem BioAssay (NCI).

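In this assay, cells in 96-well plates receive the compound at five concentrations for 48 hours. Endpoints are linearly interpolated between the surrounding concentrations. TGI denotes the concentration required for complete inhibition of growth.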

Some test systems named below: IGROV1 ovarian; TK-10 renal; HT29 colon; SF-295 CNS; ACHN renal; A549 NSCLC; T-47D breast; OVCAR-5 ovarian; 786-0 renal; OVCAR-8 ovarian.
Common to all, as to assay: growth of human tumour cells (NCI), 48 h

For `CC(C)N=C(NC#N)NS(=O)(=O)c1cnccc1NC1CCCCCCC1`, the TGI in the experiment on IGROV1 ovarian, with TK-10 renal, in the experiment with HT29 colon, in the experiment on SF-295 CNS, in the experiment with ACHN renal and in the experiment on A549 NSCLC was above 100 µM each time. Also, the TGI in the experiment on T-47D breast, in the experiment on OVCAR-5 ovarian, with 786-0 renal and with OVCAR-8 ovarian was above 100 µM throughout.
With `COC(=O)CCC(=O)c1ccc2c(c1)CC1(Cc3ccccc3C1)C2`, the TGI in the experiment with IGROV1 ovarian is above 100 µM; in the experiment with TK-10 renal it was above 100 µM; with HT29 colon, 43.9 µM; in the experiment with SF-295 CNS, above 100 µM; in the experiment with ACHN renal, above 100 µM; in the experiment on A549 NSCLC, above 100 µM. Further, the TGI in the experiment on T-47D breast, with OVCAR-5 ovarian, in the experiment on 786-0 renal and in the experiment with OVCAR-8 ovarian was above 100 µM in each case.
For `c1ccc2c[n+](Cc3ccnc4ccccc34)ccc2c1`, the TGI in the experiment with IGROV1 ovarian, in the experiment on TK-10 renal, in the experiment on HT29 colon, with SF-295 CNS, with ACHN renal and in the experiment on A549 NSCLC was above 100 µM throughout. The TGI with T-47D breast, in the experiment on OVCAR-5 ovarian, in the experiment with 786-0 renal and in the experiment on OVCAR-8 ovarian was above 100 µM throughout.
Take `O=C(O)COc1cccc2ccccc(=O)c12`: the TGI in the experiment with IGROV1 ovarian, in the experiment on TK-10 renal, in the experiment with HT29 colon, with SF-295 CNS, in the experiment with ACHN renal and with A549 NSCLC was above 100 µM throughout. Also, the TGI with T-47D breast, in the experiment on OVCAR-5 ovarian, in the experiment on 786-0 renal and in the experiment on OVCAR-8 ovarian was above 100 µM throughout.
Consider `CC(=O)Oc1ccc(C2SCc3nc4ccccc4n32)cc1` (stereo not given), for which the TGI in the experiment with IGROV1 ovarian, in the experiment with TK-10 renal, in the experiment on HT29 colon, with SF-295 CNS, in the experiment with ACHN renal and in the experiment with A549 NSCLC was above 100 µM throughout. For the same compound, the TGI in the experiment on T-47D breast, in the experiment on OVCAR-5 ovarian, with 786-0 renal and with OVCAR-8 ovarian was above 100 µM in each case.
`Nc1nc(=O)n(C2CC(O)C(CO)O2)c2nc(-c3ccc(-c4ccccc4)cc3)cnc12` (stereo not given): the TGI with IGROV1 ovarian, in the experiment with TK-10 renal, with HT29 colon, in the experiment on SF-295 CNS, in the experiment on ACHN renal and in the experiment with A549 NSCLC was above 100 µM each time. The TGI in the experiment on T-47D breast is 57.4 µM; with OVCAR-5 ovarian, above 100 µM; in the experiment on 786-0 renal it was above 100 µM; in the experiment with OVCAR-8 ovarian, above 100 µM.
Turning to `C[C@H](OC(=O)/C=C/c1ccc(O)c(O)c1)[C@H](C)OC(=O)/C=C/c1ccc(O)c(O)c1`, the TGI in the experiment with IGROV1 ovarian is 31.5 µM; in the experiment with TK-10 renal it was 34.2 µM; in the experiment with HT29 colon, above 100 µM; in the experiment with SF-295 CNS, 19.8 µM; in the experiment with ACHN renal, 30.5 µM; in the experiment on A549 NSCLC it was above 100 µM. Further, the TGI in the experiment with T-47D breast is above 100 µM; in the experiment with OVCAR-5 ovarian, 33.1 µM; with 786-0 renal it was 20 µM; in the experiment on OVCAR-8 ovarian, 26.2 µM.
Take `CCCCCC(=O)OC[n+]1ccc(-c2c(COC(=O)NC(C)C)c(COC(=O)NC(C)C)c3n2CCC3)cc1`: the TGI in the experiment with IGROV1 ovarian, in the experiment with TK-10 renal, in the experiment with HT29 colon, in the experiment with SF-295 CNS, in the experiment with ACHN renal and in the experiment with A549 NSCLC was above 100 µM each time. Moreover, the TGI with T-47D breast, in the experiment with OVCAR-5 ovarian, with 786-0 renal and in the experiment on OVCAR-8 ovarian was above 100 µM throughout.
Turning to `O=C1N(c2ccccc2)N=C2c3ccncc3C3=NN(c4ccccc4)C(=O)C123` (stereo not given), the TGI with IGROV1 ovarian, in the experiment with TK-10 renal, with HT29 colon, in the experiment with SF-295 CNS, in the experiment on ACHN renal and with A549 NSCLC was above 100 µM each time. The TGI in the experiment with T-47D breast, in the experiment on OVCAR-5 ovarian, in the experiment with 786-0 renal and in the experiment on OVCAR-8 ovarian was above 100 µM each time.
Take `Cc1csc(CP(=O)(OC(C)C)OC(C)C)n1`: the TGI in the experiment on IGROV1 ovarian, with TK-10 renal, in the experiment with HT29 colon, in the experiment on SF-295 CNS, in the experiment on ACHN renal and in the experiment on A549 NSCLC was above 100 µM in each case. Further, the TGI with T-47D breast, in the experiment with OVCAR-5 ovarian, in the experiment with 786-0 renal and in the experiment on OVCAR-8 ovarian was above 100 µM throughout.
In the case of `O=c1[nH]nc(-c2ccccc2)c2[nH]c3c(c12)CCCc1ccccc1-3`, the TGI in the experiment with IGROV1 ovarian stood at 25 µM; with TK-10 renal it was 86.4 µM; in the experiment with HT29 colon it was 24.3 µM; with SF-295 CNS it was 57.5 µM; in the experiment on ACHN renal, 38.9 µM; with A549 NSCLC, 25.6 µM. The TGI with T-47D breast was found to be 57.5 µM; in the experiment with OVCAR-5 ovarian, 34.8 µM; in the experiment with 786-0 renal, 28 µM; in the experiment with OVCAR-8 ovarian, 50.7 µM.
Take `COc1ccc(-c2c3c(n(C4OC(COC(C)=O)C(OC(C)=O)C(OC(C)=O)C4OC(C)=O)c(=S)c2C#N)CCCC3)cc1` (stereo not given): the TGI in the experiment on IGROV1 ovarian, in the experiment on TK-10 renal, with HT29 colon, in the experiment on SF-295 CNS, in the experiment with ACHN renal and with A549 NSCLC was above 100 µM each time. In addition, the TGI in the experiment with T-47D breast, with OVCAR-5 ovarian, in the experiment on 786-0 renal and in the experiment on OVCAR-8 ovarian was above 100 µM each time.
Turning to `CCN(CC)CCCNc1c2cc(OC)ccc2nc2cccc([N+](=O)[O-])c12`, the TGI in the experiment on IGROV1 ovarian is 0.387 µM; with TK-10 renal, 0.569 µM; with HT29 colon it was 0.453 µM; in the experiment on SF-295 CNS, 0.796 µM; in the experiment with ACHN renal it was 0.306 µM; in the experiment with A549 NSCLC it was 0.507 µM. In addition, the TGI was 0.618 µM in the experiment on T-47D breast, 0.432 µM in the experiment on OVCAR-5 ovarian, 0.464 µM with 786-0 renal and 0.264 µM in the experiment with OVCAR-8 ovarian.
